This assay has as its system primary neuronal cultures from embryonic rat brains. The assay is described as follows: Rat oscillation assay (FLIPR, neuronal calcium oscillations). The class given is cell-based. On the procedure: A) Rat Oscillation Assay:
This assay is a functional phenotypic assay designed to mimic epileptic seizures using primary neuronal cultures from embryonic rat brains, which form a functional neuronal network that generate synchronized intracellular calcium concentration oscillations when cultured at high density in 384-well plate. The epileptic phenotype is induced by incubating the neurons in magnesium-free assay buffer, that results in increased probability of NMDA receptor activation, leading to an increased frequency and amplitude of intracellular calcium oscillations. Once neurons are incubated with the calcium indicator dye Fluo-8 AM (Tebu-bio), neuronal calcium oscillations can be monitored in real time using FLIPR® Tetra (fluorometric plate reader, Molecular Devices). With these recordings, the effect of anti-epileptic drugs can be quantified. The anti-epileptic effect of compounds, which activate directly or indirectly the Kv7 channels can be modulated by the Kv7 channel blocker XE-991. The assay was performed as described previously (Pacico N, Mingorance-Le Meur A. New In Vitro Phenotypic Assay for Epilepsy: Fluorescent Measurement of Synchronized Neuronal Calcium Oscillations. PLoS ONE 9(1) 2014) with modifications described hereafter.
Animal care followed standard procedures in accordance with swiss institutional guidelines. Dissociated neuronal cultures were obtained from cerebral cortices of embryonic Wistar rats at embryonic stage E18 (Charles River). The uterine horns were removed by caesarian surgery from deeply anesthetized rats (Isofurane) and sacrificed by decapitation. The embryos were decapitated by closing forceps. The brains were isolated and dissected one by one in ice-cold PBS (Life Technologies) under optical control using a binocular. Meninges, olfactory bulbs, and basal ganglia were removed. Cortical hemispheres (still including the hippocampus) were cut in small pieces with tweezers and placed on ice in pre-chilled Hibernate-E medium (Life technology). The hemispheres were then incubated in 10 mL of Hibernate-E containing 15 U/mL papain (Worthington) for 25 min at 30° C. with gentle mixing every 10 min. Genomic DNA was then digested by prolonging the incubation during 10 min at 37° C. in presence of 4 U/mL rDNase I (Ambion). The obtained suspension was then centrifuged at 800 g for 5 min and the cell pellet was resuspended in 2 mL Hibernate-E and gently dissociated by pipetting up and down 10 times with a plastic Pasteur pipette resulting in a homogenous cell suspension. This suspension was immediately filtered through a 70 µm cell strainer (MACS® SmartStrainer, Miltenyi), collected in 10 mL Hibernate-E and centrifuged at 800 g for 5 min. The cell pellet was resuspended in Neurobasal medium, supplemented with 2% B-27, 0.5 mM Glutamax-I, 100 U/mL penicillin, 100 µg/mL streptomycin (Life Technologies) and diluted at the final concentration of 300′000 cells/mL. One day before plating the cells, 384-well plates were coated with 25 μL/well of 0.1% poly-L-lysine solution (Sigma), incubated overnight at 37° C., washed two times with sterile distilled water and allowed to dry at room temperature for >2 h. The neurons were seeded at a density of 15′000 cells/well in 50 μL/well in a 384-well black, clear-bottomed plates (Corning) and subsequently maintained in an incubator at 37° C., 5% CO2 and 95% humidity for 8 to 10 days. After 3 and 7 days, 40% of media was renewed under sterile conditions.
Protocol Rat Oscillation Assay
Neurons seeded in the assay plates were washed with Hank's balanced salt solution (HBSS) devoid of Ca^2+ and Mg^2+, supplemented with 20 mM HEPES (Life Technologies) and 2 mM CaCl2 (Sigma), pH 7.4 (hereafter called Assay buffer) using a Biotek EL406 plate washer. Neurons were loaded with 1 μM Fluo-8 AM in Assay buffer for 15 min at 37° C., 5% CO2. […]

Setting [1] is: Rattus norvegicus, 20 min, AUC of fluorescence measured 20 min after compound addition, read-out: FLIPR: IC50 [nM] 20 min.
The mark [2] stands for this setting: Rattus norvegicus, Acute phase, ratio of AUC fluorescence before and after compound addition, read-out: FLIPR: IC50 [nM] acute.
The mark [3] stands for this setting: AUC of fluorescence measured 20 min after compound addition, read-out: FLIPR: IC50 [nM] 20 min.
[4] abbreviates: Acute phase, ratio of AUC fluorescence before and after compound addition, read-out: FLIPR: IC50 [nM] acute.

Like-named read-outs stand apart in the source and are kept apart here.

Broadly, the IC50 is the concentration needed to halve the response being measured. `Cc1c(OCC(F)(F)F)cccc1C(C)NC(=O)NC1CC2(CCC2)C1` (racemic) [Example 29, (±)-1-{1-[2-Methyl-3-(2,2,2-trifluoro-ethoxy)-phenyl]-ethyl}-3-spiro[3.3]hept-2-yl-urea]: the IC50 runs as follows: under setting [1], 253 nM; under setting [2], 452 nM.

Turning to `O=C(NC1CC2(CC2)C1)NC(c1cccc(C(F)(F)F)c1)C(F)F` (racemic) [Example 146, (±)-1-[2,2-Difluoro-1-(3-trifluoromethyl-phenyl)-ethyl]-3-spiro[2.3]hex-5-yl-urea], the IC50 was 6.6 nM under setting [1] and 4.2 nM under setting [2].

Turning to `O=C(NC1CC2(CCC2)C1)N[C@H](c1cccc(C(F)(F)F)c1)c1nc[nH]n1` (single isomer, unassigned) [Example 179], the IC50 is 13 nM under setting [1] and 24 nM under setting [2].

On to `CC(NC(=O)NC1CC2(CCC2)C1)c1cccc(S(C)(=O)=O)c1` (racemic) [Example 36, (±)-1-[1-(3-Methanesulfonyl-phenyl)-ethyl]-3-spiro[3.3]hept-2-yl-urea], for which the IC50 under setting [1] worked out at 330 nM and the IC50 under setting [2] was determined as 236 nM.

As for `COCC(Oc1cc(CNC(=O)NC2CC3(CCC3)C2)ccn1)C(F)(F)F` (single isomer, unassigned) [Example 171, 1-Spiro[3.3]hept-2-yl-3-[2-(2,2,2-trifluoro-1-methoxymethyl-ethoxy)-pyridin-4-ylmethyl]-urea], the IC50 was determined as 377 nM under setting [3] and 252 nM under setting [4].

For `O=C(NC1CC2(CCC2)C1)NC(CCO)c1cc(OCC(F)(F)F)ncn1` (racemic) [Example 85, (±)-1-{3-Hydroxy-1-[6-(2,2,2-trifluoro-ethoxy)-pyrimidin-4-yl]-propyl}-3-spiro[3.3]hept-2-yl-urea], the IC50 was 146 nM under setting [1] and 157 nM under setting [2].

In the case of `CC(NC(=O)NC1CC2(CCC2)C1)c1cc(OCC(F)(F)F)ccc1F` (racemic) [Example 99, (±)-1-{1-[2-Fluoro-5-(2,2,2-trifluoro-ethoxy)-phenyl]-ethyl}-3-spiro[3.3]hept-2-yl-urea], the IC50 reads like this: under setting [1], 20 nM; under setting [2], 32 nM.

As for `N#CC(NC(=O)NC1CC2(CCC2)C1)c1cccc(C(F)(F)F)c1` (centres unmarked) [Example 55, 1-[Cyano-(3-trifluoromethyl-phenyl)-methyl]-3-spiro[3.3]hept-2-yl-urea], the IC50 under setting [1] is 48 nM and the IC50 under setting [2] is 67 nM.

For the compound `O=C(NCc1ccc(F)c(OCC(F)(F)F)c1)NC1CC2(CCC2)C1` [Example 114, 1-[4-Fluoro-3-(2,2,2-trifluoro-ethoxy)-benzyl]-3-spiro[3.3]hept-2-yl-urea], the IC50 by setting is: under setting [1], 61 nM; under setting [2], 107 nM.

`COCC(NC(=O)NC1CC2(CCC2)C1)c1cccc(S(C)(=O)=O)c1` (racemic) [Example 86, (±)-1-[1-(3-Methanesulfonyl-phenyl)-2-methoxy-ethyl]-3-spiro[3.3]hept-2-yl-urea]: the IC50 was 91 nM under setting [1] and 110 nM under setting [2].

As for `CC(NC(=O)NC1CC2(CC2)C1)c1cc(F)cc(OCC(F)(F)F)c1` (racemic) [Example 132, (±)-1-{1-[3-Fluoro-5-(2,2,2-trifluoro-ethoxy)-phenyl]-ethyl}-3-spiro[2.3]hex-5-yl-urea], the IC50 stood at 110 nM under setting [1] and 79 nM under setting [2].

`O=C(NCc1cccc(S(F)(F)(F)(F)F)c1)NC1CC2(CCC2)C1` [Example 35, 1-(3-(pentafluoro-λ^6-sulfaneyl)benzyl)-3-(spiro[3.3]heptan-2-yl)urea]: the IC50 was 24 nM under setting [1] and 22 nM under setting [2].

For the compound `COc1c(CNC(=O)NC2CC3(CC3)C2)cccc1C(F)(F)F` [Example 128, 1-(2-Methoxy-3-trifluoromethyl-benzyl)-3-spiro[2.3]hex-5-yl-urea], the IC50 came to 950 nM under setting [1] and 981 nM under setting [2].

As for `O=C(NCc1cccc(C(F)(F)F)c1)NC1CC2(C1)CC(F)(F)C2` [Example 6, 1-(6,6-Difluoro-spiro[3.3]hept-2-yl)-3-(3-trifluoromethyl-benzyl)-urea], the IC50 reads like this: under setting [1], 112 nM; under setting [2], 62 nM.

Take `CC(NC(=O)NC1CC2(CC2)C1)c1cc(OCC(F)(F)F)ccc1F` (racemic) [Example 129, (±)-1-{1-[2-Fluoro-5-(2,2,2-trifluoro-ethoxy)-phenyl]-ethyl}-3-spiro[2.3]hex-5-yl-urea]: the IC50 is, setting by setting: under setting [1], 254 nM; under setting [2], 212 nM.

With `O=C(NCc1cccc(C(F)(F)F)c1)NC1CC2(C1)CC2(F)F` (single isomer, unassigned) [Example 4, 1-(1,1-Difluoro-spiro[2.3]hex-5-yl)-3-(3-trifluoromethyl-benzyl)-urea], the IC50 is, setting by setting: under setting [3], 152 nM; under setting [4], 175 nM.

With `COCC(NC(=O)NC1CC2(CC2)C1)c1ccnc(OCC(F)(F)F)c1` (racemic) [Example 154, (±)-1-{2-Methoxy-1-[2-(2,2,2-trifluoro-ethoxy)-pyridin-4-yl]-ethyl}-3-spiro[2.3]hex-5-yl-urea], the IC50 stood at 24 nM under setting [1] and 8.1 nM under setting [2].

As to `Cc1ccc(C(C)NC(=O)NC2CC3(CCC3)C2)cc1OCC(F)(F)F` (racemic) [Example 26, (±)-1-{1-[4-Methyl-3-(2,2,2-trifluoro-ethoxy)-phenyl]-ethyl}-3-spiro[3.3]hept-2-yl-urea], the IC50 by setting is: under setting [1], 206 nM; under setting [2], 190 nM.

In the case of `CCOCCC(NC(=O)NC1CC2(CCC2)C1)c1ccnc(OCC(F)(F)F)c1` (racemic) [Example 77, (±)-1-{3-Ethoxy-1-[2-(2,2,2-trifluoro-ethoxy)-pyridin-4-yl]-propyl}-3-spiro[3.3]hept-2-yl-urea], the IC50 worked out at 226 nM under setting [1] and 279 nM under setting [2].

As to `NC(=O)CCC(NC(=O)NC1CC2(CCC2)C1)c1cccc(C(F)(F)F)c1` (racemic) [Example 79, (±)-4-(3-Spiro[3.3]hept-2-yl-ureido)-4-(3-trifluoromethyl-phenyl)-butyramide], the IC50 runs as follows: under setting [1], 634 nM; under setting [2], 599 nM.

Take `COc1ccc(C(C)NC(=O)NC2CC3(CCC3)C2)cc1OCC(F)(F)F` (racemic) [Example 28, (±)-1-{1-[4-Methoxy-3-(2,2,2-trifluoro-ethoxy)-phenyl]-ethyl}-3-spiro[3.3]hept-2-yl-urea]: the IC50 was found to be 600 nM under setting [1] and 629 nM under setting [2].

As to `CC(NC(=O)NC1CC2(CCC2)C1)c1cccc(OCC(F)(F)F)c1F` (racemic) [Example 98, (±)-1-{1-[2-Fluoro-3-(2,2,2-trifluoro-ethoxy)-phenyl]-ethyl}-3-spiro[3.3]hept-2-yl-urea], the IC50 by setting is: under setting [1], 14 nM; under setting [2], 11 nM.

`Cc1ccc(CNC(=O)NC2CC3(CCC3)C2)cc1OCC(F)(F)F` [Example 109, 1-[4-Methyl-3-(2,2,2-trifluoro-ethoxy)-benzyl]-3-spiro[3.3]hept-2-yl-urea]: the IC50 is, setting by setting: under setting [1], 262 nM; under setting [2], 200 nM.

As for `CC(NC(=O)NC1CC2(CCC2)C1)c1ccc(F)c(OCC(F)(F)F)c1` (racemic) [Example 113, (±)-1-{1-[4-Fluoro-3-(2,2,2-trifluoro-ethoxy)-phenyl]-ethyl}-3-spiro[3.3]hept-2-yl-urea], the IC50 was 22 nM under setting [1] and 33 nM under setting [2].

`O=C(NCc1cc(F)cc(C(F)(F)F)c1)NC1CC2(CCC2)C1` [Example 18, 1-(3-Fluoro-5-trifluoromethyl-benzyl)-3-spiro[3.3]hept-2-yl-urea]: the IC50 worked out at 65 nM under setting [1] and 109 nM under setting [2].
